We go through 16 compounds from patent publication US9849489B2, “Passive sampling devices” (priority 2015, dated 2017).

Series [1] can be described thus: stability of 17 infused compounds in stored wristbands. The class given is physicochemical. The following applies: for Overall RSD from entire study to 28 days: RSD across all time and temperature samples (−20° C., 4° C., 30° C.); for Beginning RSD from starting time point: RSD of concentration (ng/mL), extraction immediately following infusion. The method, then:
In another example, the stability of wristbands infused with 17 compounds of varied physiochemistry was studied for various combinations of times and temperatures. […] Twelve wristbands underwent solvent extraction and analysis immediately following infusion. The remaining wristbands were divided into three groups and one group of wristbands was stored at each of −20° C., 4° C., and 30° C. Four wristbands from each temperature group underwent solvent extraction and analysis after 7 days and after 28 days. Four wristbands from the −20° C. and 4° C. temperature groups underwent solvent extraction and analysis after 14 days. This stability study is ongoing and will span 2 years.

A short description of series [2]: stability of PAH-infused wristbands stored in PTFE bags at three temperatures. The class given is physicochemical. The following applies: −20° C., 23° C. or 35° C., 72 hours. The protocol: Studies were carried out to examine whether PAHs would degrade after being sequestered by a wristband or whether field or handling conditions would influence exposure concentrations determined during wristband analysis.
The PAH-infused wristbands placed in PTFE storage bags were exposed to a temperature of −20° C. (in a walk-in freezer), 23° C. (ambient temperature), or 35° C. (in a drying oven) for 72 hours. Temperatures in each environment were monitored every 30 minutes using a temperature logger. Following the 72-hour exposure, the PAHs were extracted from the wristbands using solvent extraction and analyzed as described above.
In FIG. 14, the ratio of each analyte response divided by an internal standard response (for perylene-d12) are shown, because an error with surrogate recovery artificially inflated the variance across the three temperature exposures. […] The largest change among all PAH analytes was still less than 13% (fluorene-d10, freezer and ambient temperatures), so any changes in PAH concentrations were deemed negligible. Furthermore, potential changes in concentration would have been conserved since transportation was similar among wristbands within each temperature group. […] The standard deviations in FIG. 14 are the result of three replicates.

Structures are written as SMILES. Structures can show the parent of a compound that is named as a salt.

Consider `[2H]c1c([2H])c([2H])c2c(c1[2H])-c1c([2H])c([2H])c([2H])c([2H])c1C2([2H])[2H]` [fluorene-d10, reference compound], for which, in series [1], the “Overall RSD from entire study to 28 days” value was 16% and the “Beginning RSD from starting time point” value came to 14%. The “largest change in analyte response ratio between temperature groups” value in series [2] was “less than 13%”.

For the compound `CCCSP(=O)(OCC)SCCC` [prophos/ethoprophos], in series [1], the “Overall RSD from entire study to 28 days” value is on record as 11% and the “Beginning RSD from starting time point” value amounted to 8%.

In the case of `[2H]c1c([2H])c(-c2cc(Cl)c(Cl)c(Cl)c2Cl)c([2H])c(Cl)c1Cl` [PCB-156-d3, reference compound], in series [1], the “Overall RSD from entire study to 28 days” value is 50% and the “Beginning RSD from starting time point” value was determined as 53%.

With `[2H]c1c([2H])c(Oc2ccc(Cl)cc2O)c(Cl)c([2H])c1Cl` [triclosan-d3, reference compound], in series [1], the “Overall RSD from entire study to 28 days” value stood at 11% and the “Beginning RSD from starting time point” value was 9%.

As to `O=P(OC(CCl)CCl)(OC(CCl)CCl)OC(CCl)CCl` [TCDPP, 1,3-dichloro-2-propyl phosphate], in series [1], the “Overall RSD from entire study to 28 days” value is reported as 14% and the “Beginning RSD from starting time point” value came to 10%.

Turning to `O=P(Oc1ccccc1)(Oc1ccccc1)Oc1ccccc1` [triphenyl phosphate], in series [1], the “Overall RSD from entire study to 28 days” value stood at 12% and the “Beginning RSD from starting time point” value was 6%.

Take `[2H]c1c([2H])c([2H])c(-c2c(Cl)c(Cl)c(Cl)c(Cl)c2Cl)c([2H])c1[2H]` [PCB-116-d5, reference compound]: in series [1], the “Overall RSD from entire study to 28 days” value was 44% and the “Beginning RSD from starting time point” value is listed as 45%.

Turning to `[2H]c1c([2H])c2c([2H])c([2H])c3c([2H])c([2H])c([2H])c4c([2H])c([2H])c(c1[2H])c2c34` [pyrene-d10, reference compound], in series [1], the “Overall RSD from entire study to 28 days” value turned out to be 32% and the “Beginning RSD from starting time point” value is 27%.

As for `Brc1ccc(Oc2ccc(Br)cc2Br)c(Br)c1` [PBDE 47], in series [1], the “Overall RSD from entire study to 28 days” value was determined as 37% and the “Beginning RSD from starting time point” value is listed as 37%.

For the compound `[2H]c1c([2H])c([2H])c(-c2c(Cl)c(Cl)cc(Cl)c2Cl)c([2H])c1[2H]` [PCB-65-d5, reference compound], in series [1], the “Overall RSD from entire study to 28 days” value is listed as 37% and the “Beginning RSD from starting time point” value was determined as 35%.

In the case of `O=S1(=O)OCC2C(CO1)C1(Cl)C(Cl)=C(Cl)C2(Cl)C1(Cl)Cl` (stereo not drawn) [endosulfan sulfate], in series [1], the “Overall RSD from entire study to 28 days” value was determined as 10% and the “Beginning RSD from starting time point” value is on record as 8%.

Take `[2H]c1c([2H])c([2H])c2c(c1[2H])C(=O)c1c([2H])c([2H])c([2H])c([2H])c1C2=O` [Anthraquinone-d8, reference compound]: in series [1], the “Overall RSD from entire study to 28 days” value is 14% and the “Beginning RSD from starting time point” value is reported as 8%.

Turning to `Brc1cc(Br)c(Oc2cc(Br)c(Br)cc2Br)c(Br)c1` [PBDE 154], in series [1], the “Overall RSD from entire study to 28 days” value is given as 51% and the “Beginning RSD from starting time point” value is on record as 53%.

For the compound `O=C1C2CC3C1C1(Cl)C(Cl)C4(Cl)C2C3C1(Cl)C4(Cl)Cl` (stereo not drawn) [endrin Ketone], in series [1], the “Overall RSD from entire study to 28 days” value came to 8% and the “Beginning RSD from starting time point” value is reported as 4%.

Take `Brc1ccc(Oc2cc(Br)c(Br)cc2Br)c(Br)c1` [PBDE 99]: in series [1], the “Overall RSD from entire study to 28 days” value is on record as 43% and the “Beginning RSD from starting time point” value is 46%.

Consider `CCOP(=S)(OCC)Oc1nc(Cl)c(Cl)cc1Cl` [chlorpyrifos], for which, in series [1], the “Overall RSD from entire study to 28 days” value is on record as 24% and the “Beginning RSD from starting time point” value came to 19%.
